Data as given in patent US10160986B2, “Chemoenzymatic synthesis of heparin and heparan sulfate analogs” (The Regents of the University of California, priority 2011, dated 2018).

Assays:
[1] = system: T1, MBP-KfiA-His6 (Escherichia coli); test: GlcNAcT donor substrate specificity of MBP-KfiA-His6 (Example 12); format: biochemical, E. coli; details: acceptor GlcAβ2AA 1 mM, UDP-sugar 1 mM, MnCl2 10 mM, KfiA 2.8 μg μl^−1, 24 h, 37° C.
T1 construct: made in house; host or cells: E. coli BL21(DE3) co-expressing chaperone plasmid pGro7
Method: (§1) PmHS2, KfiA, and related fusion proteins were expressed, purified, and characterized as described in Example 1. Reactions with UDP-sugars were carried out in duplicate at 37° C. in MES (100 mM, pH 6.5) containing UDP-GlcNAc or one of its derivatives (1 mM), GlcAβ2AA (1 mM), MnCl2 (10 mM) and KfiA (2.8 μg μl^−1) or PmHS2 (1.1 μg μl^−1) for 24 h. The reaction mixtures were stopped by adding ice-cold 10% (v/v) acetonitrile to make 100-fold dilutions and the mixtures were analyzed by HPLC as described for the pH profile.
(§2) Substrate specificity of the GlcNAcT activities of MBP-KfiA-his6 and his6-PmHS2. […] The reactions were easily analyzed by high performance liquid chromatography (HPLC) equipped with a fluorescence detector using an excitation wavelength of 315 nm and an emission wavelength of 400 nm to determine the ratio of the fluorescent disaccharide product formed and the fluorescent GlcAβ2AA acceptor.

His6-PmHS2 = test: GlcNAcT donor substrate specificity of His6-PmHS2 (Example 12); format: biochemical, Pasteurella multocida; details: acceptor GlcAβ2AA 1 mM, UDP-sugar 1 mM, MnCl2 10 mM, PmHS2 1.1 μg μl^−1, 24 h, 37° C.
Method: as §1, §2

PmHS2 [2] = test: Donor substrate specificity of PmHS2 by HPLC (Example 1); format: biochemical, Pasteurella multocida; details: acceptor GlcAα2AA 1 mM, UDP-sugar 1 mM, MnCl2 10 mM, pH 6.5, 37° C.
Method: (§3) pH profile by HPLC. Typical enzymatic assays were performed in a 10 μl reaction mixture containing a buffer (100 mM) with a pH in the range of 4.0-10.0, UDP-GlcNAc (1 mM), GlcAβ2AA (1 mM), MnCl2 (10 mM) and KfiA (9.0 μg) or PmHS2 (0.25 μg). Buffers used were: Na2HPO4/citric acid, pH 4.0; MES, pH 5.0-6.5; TrisHCl, pH 7.0-9.0; and CAPS, pH 10.0. Reactions were allowed to proceed for 30 min at 37° C. and were quenched by adding ice-cold 10% (v/v) acetonitrile to make 100-fold dilutions. The samples were then kept on ice until an aliquot of 8 μl was injected and analyzed by a Shimadzu LC-2010A system equipped with a membrane on-line degasser, a temperature control unit and a fluorescence detector. A reverse phase Premier C18 column (250 9 4.6 mm I.D., 5 μm particle size, Shimadzu) protected with a C18 guard column cartridge was used. The mobile phase was 25% (v/v) acetonitrile. The fluorescent compounds GlcAβ2AA and GlcNAcα1-4GlcAβ2AA were detected by excitation at 315 nm and emission at 400 nm.
(§4) Substrate specificity of KfiA and PmHS2. All reactions were carried out in duplicate at 37° C. in MES (100 mM, pH 6.5) containing an UDP-GlcNAc or its derivatives (1 mM), […] (1 mM), MnCl2 (10 mM) and KfiA ([…] PmHS2 (2.5×10^−2 μg μl^−1). At 30 min, 4 h or 16 h, aliquots of reaction mixture were withdrawn and were quenched by adding ice-cold 10% (v/v) acetonitrile to make 100-fold dilutions. The assays were analyzed by HPLC.

KfiA = test: Donor substrate specificity of KfiA by HPLC (Example 1); format: biochemical, E. coli; details: acceptor GlcAα2AA 1 mM, UDP-sugar 1 mM, MnCl2 10 mM, pH 6.5, 37° C.
Method: as §3, §4

PmHS2 [3] = test: Small-scale PmHS2 donor substrate test by TLC; format: biochemical, Pasteurella multocida; details: GlcAβ2AAMe 10 mM, donor 15 mM, MgCl2 10 mM, PmHS2 0.5 mg/mL, pH 7.5, 37° C., 12 hr
Method: Prior to applying the one-pot three-enzyme system shown in FIG. 16 to the preparative-scale synthesis of the disaccharides, UDP-GlcNAc and derivatives F17-1-F17-12 were tested as donor substrates for PmHS2 in small-scale reaction containing Tris-HCl buffer (100 mM, pH 7.5), GlcAβ2AAMe (10 mM), UDP-GlcNAc or a derivative (15 mM), MgCl2 (10 mM), and PmHS2 (0.5 mg/mL). The reactions were carried out at 37° C. for 12 hr and analyzed by thin layer chromatography (TLC).

NahK = test: Kinase reaction monitored by CE (ATP to ADP), NahK; format: biochemical, Bifidobacterium infantis; details: monosaccharide 15 mM, ATP 18 mM, 37° C.
Method: (§5) Capillary electrophoresis (CE) and thin-layer chromatograph (TLC) assays for kinase reactions. Kinase reactions were carried out at 37° C. in a total volume of 30 μL in Tris-HCl buffer (100 mM, pH 8.0) containing monosaccharide (15 mM), ATP (18 mM, 1.2 eq.), MgCl2 (10 mM), and a kinase (6 μg). These conditions were similar to those used for preparative-scale synthesis. After 1 hr, 4 hr, and 24 hr, an aliquot of 8 μL was withdrawn from each reaction mixture, boiled in a water bath for 5 min and stored at −20° C. until being analyzed by capillary electrophoresis (CE) and TLC. For TLC analysis, 0.5 μL of each sample was directly spotted on TLC plates, developed using suitable developing solvents, and stained with anisaldehyde sugar stain. For CE analysis, 1.5 μL of each sample was diluted into 30 μL and subjected to CE analysis as described above for pH profile studies.
General methods for compound purification and characterization. Chemicals were purchased and used without further purification. ^1H NMR and ^13C NMR spectra were recorded on a Varian Mercury 600 NMR spectrometer. High resolution electrospray ionization (ESI) mass spectra were obtained in negative mode using Thermo Electron LTQ-Orbitrap mass spectrometer. Silica gel 60 Å (Sorbent Technologies) was used for flash column chromatography. Thin-layer chromatography (TLC) was performed on silica gel plates 60 GF254 (Sorbent Technologies) using anisaldehyde sugar stain for detection. Gel filtration chromatography was performed with a column (100 cm×2.5 cm) packed with BioGel P-2 Fine resins (Bio-Rad). GlcN3 (T6-9) (Lau K, Thon, V, Yu H, Ding L, Chen Y, Muthana M M, Wong D, Huang R, and Chen X. Chem. Commun. 2010, 46, 6066-6068), ManF (T6-11) (Burkart M D, Zhang Z, Hung S-C, and Wong C-H. J. Am. Chem. Soc. 1997, 119, 11743-11746; Cao H, Li Y, Lau K, Muthana S, Yu H, Cheng J, Chokhawala H A, Sugiarto G, Zhang L, and Chen X. Org. Biomol. Chem. 2009, 7, 5137-5145), GalN3 (T6-4) and ManN3 (T6-14) (Yu H, Yu H, Karpel R, cand Chen X. Bioorg. Med. Chem. 2004, 12, 6427-6435) were previously synthesized using reported methods. NahK_ATCC15697, EcGalK, SpGalK, and PmPpA were overexpressed as described previously.

AtGlcAK = biological target: T2, AtGlcAK (Arabidopsis thaliana, UniProt Q93ZC9, I297M); test: AtGlcAK substrate specificity CE assay; format: biochemical; details: High enzyme Conc. (2.1 μg in 20 μL, 60 min, 37° C.)
T2 construct: made in house; host or cells: E. coli BL21 (DE3)
Method: Substrate specificity assays. […] The reactions were quenched and assayed with the same method as those for pH profile. All reactions were performed in duplicates.

NahK_ATCC55813 = NahK_ATCC55813 (Bifidobacterium longum subsp. longum, UniProt E8MF12, D7V/R348H); format: biochemical; parameters: made in house; host or cells: E. coli BL21(DE3); details: Glc, Gal, Man, ManNAc and derivatives; enzyme 15, 37° C. for 30 min (Table 3); listed as drawing 47
Method: (§6) Substrates specificity assays. GlcNAc, GalNAc, and their derivatives (1 mM) were used as substrates in the presence of ATP (1 mM) and MgCl2 (5 mM) in a Tris-HCl buffer (pH 8.0, 200 mM) to analyze the substrate specificity of NahKs. Two concentrations (0.75 μM or 15 μM) of each NahK were used and the reactions were allowed to proceed for 10 min (for 0.75 μM NahK) or 30 min (for 15 μM NahK) at 37° C. […] All other conditions were the same as for GlcNAc, GalNAc, and their derivatives.
(§7) Capillary electrophoresis (CE) assays. Based on the detection of ADP and ATP in the reaction mixture by a UV detector, a capillary electrophoresis-based method was developed to directly measure the formation of ADP and N-acetylhexosamine-1-phosphate from ATP and N-acetylhexosamine for characterizing the activities of NahKs.

SpGalK = biological target: T3, SpGalK (Streptococcus pneumoniae serotype 4, UniProt Q97NZ6); test: Kinase reaction monitored by CE (ATP to ADP), SpGalK; format: biochemical, Streptococcus pneumoniae TIGR4; details: monosaccharide 15 mM, ATP 18 mM, 37° C.
T3 construct: made in house
Method: as §5, with “Kinase reactions were carried out at 37° C. in a total volume of 30 μL in Tris-HCl buffer (100 mM, pH 8.0) containing monosaccharide (15 mM), ATP (18 mM, 1.2 eq.), MgCl2 (10 mM), and a kinase (6 μg).” left out

NahK_ATCC15697 = NahK_ATCC15697 (Bifidobacterium longum, UniProt B7GN78); test: Substrate specificity CE assay, NahK_ATCC15697; format: biochemical, Bifidobacterium infantis; details: Glc, Gal, Man, ManNAc and derivatives; enzyme 15, 37° C. for 30 min (Table 3); listed as drawing 47
Method: as §6, §7

EcGalK = biological target: T4, EcGalK (Escherichia coli, UniProt P0A6T3); test: Kinase reaction monitored by CE (ATP to ADP), EcGalK; format: biochemical; details: monosaccharide 15 mM, ATP 18 mM, 37° C.
T4 construct: made in house
Method: as §5, with “Kinase reactions were carried out at 37° C. in a total volume of 30 μL in Tris-HCl buffer (100 mM, pH 8.0) containing monosaccharide (15 mM), ATP (18 mM, 1.2 eq.), MgCl2 (10 mM), and a kinase (6 μg).” left out

SMILES: CC(=O)N[C@H]1[C@@H](OP(=O)(O)OP(=O)(O)OC[C@H]2O[C@@H](n3ccc(=O)[nH]c3=O)[C@H](O)[C@@H]2O)O[C@H](CO)[C@@H](O)[C@@H]1O [Compound F17-1, Uridine 5′-diphospho-2-acetamido-2-Deoxy-α-D-glucopyranoside]
- donor substrate for MBP-KfiA-His6 [1]: can be used by MBP-KfiA-His6
- donor substrate for the α1-4GlcNAcT activity of His6-PmHS2 (His6-PmHS2): suitable donor substrates for His6-PmHS2
- donor substrate for PmHS2 (PmHS2 [2]): best substrate
- donor substrate for KfiA (KfiA): best substrate
- donor substrate for PmHS2 (PmHS2 [3]): tolerable donor substrates

SMILES: O=C(NC1C(OP(=O)(O)OP(=O)(O)OCC2OC(n3ccc(=O)[nH]c3=O)C(O)C2O)OC(CO)C(O)C1O)C(F)(F)F [Compound F17-2, Uridine 5′-diphospho-2-deoxy-2-trifluoroacetamido-α-D-glucopyranoside]
- donor substrate for PmHS2 (PmHS2 [2]): can use
- donor substrate for KfiA (KfiA): can use
- donor substrate for PmHS2 (PmHS2 [3]): tolerable donor substrates

SMILES: O=C(CO)N[C@H]1[C@@H](OP(=O)(O)OP(=O)(O)OC[C@H]2O[C@@H](n3ccc(=O)[nH]c3=O)[C@H](O)[C@@H]2O)O[C@H](CO)[C@@H](O)[C@@H]1O [Compound F17-3, Uridine 5′-diphospho-2-hydroxyacetamido-2-deoxy-α-D-glucopyranoside]
- donor substrate for PmHS2 (PmHS2 [2]): can use
- donor substrate for KfiA (KfiA): can use
- donor substrate for PmHS2 (PmHS2 [3]): tolerable donor substrates

SMILES: [N-]=[N+]=NCC(=O)N[C@H]1[C@@H](OP(=O)(O)OP(=O)(O)OC[C@H]2O[C@@H](n3ccc(=O)[nH]c3=O)[C@H](O)[C@@H]2O)O[C@H](CO)[C@@H](O)[C@@H]1O [Compound F17-4, Uridine 5′-diphospho-2-azidoxyacetamido-2-deoxy-α-D-glucopyranoside]
- donor substrate for PmHS2 (PmHS2 [2]): can use
- donor substrate for KfiA (KfiA): can use
- donor substrate for PmHS2 (PmHS2 [3]): tolerable donor substrates

SMILES: OCC1OC(O)C(O)[C@@H](O)[C@@H]1O (stereo partly shown) [Glc, glucose]
- ATP Conversion (NahK; 4 hr): 18.6%
- ATP Conversion (NahK; 24 hr): 82.2%
- Percentage conversion of ATP (AtGlcAK): <5%
- Percentage Conversion (NahK_ATCC55813): 4.7 ± 0.1%
- ATP Conversion (SpGalK; 1 hr): 6.9%
- ATP Conversion (SpGalK; 4 hr): 13.8%
- ATP Conversion (SpGalK; 24 hr): 75.5%
- Percentage Conversion (NahK_ATCC15697): 9.1 ± 0.1%
- ATP Conversion (EcGalK; 1 hr): 8.2%
- ATP Conversion (EcGalK; 4 hr): 13.0%
- ATP Conversion (EcGalK; 24 hr): 66.4%
